In patent US20050014765A1, “Aryl-heteroaromatic products, compositions comprising them and use” (Aventis Pharma S.A., priority 2003, published 2005):
Counter-ions that a name gives are not always drawn.

Legend:
HCT116 cells = assay: Inhibition of proliferation of the HCT116 human colon tumor line ([14C]-thymidine incorporation); type: cell-based; settings: HCT-116, 48 hours incubation at 37° C., read-out: Inhibition of HCT116 proliferation IC 50
Method: Test for Determining the Inhibition of Proliferation of the HCT116 Human Colon Tumor Line
The proliferation of HCT116 cells is evaluated by mesuring the incorporation of [^14C]-thymidine in the following way. The HCT166 cells (from the ATCC) are cultured in a DMEM medium (Gibco) which contains 10% of fetal calf serum and antibiotics (1% penicillin, 1% streptomycin). To perform the proliferation test, the cells are seeded into 96-well cytostar microplates (Amersham) at the rate of 5000 cells per well. The [^14C]-thymidine (0.1 μCi/well) and the products to be evaluated are subsequently added. Variable concentrations of products up to 10 μM are used; the DMSO (solvent used to dissolve the products) should not exceed 0.5% in the medium. 48 hours after incubation at 37° C., the radioactivity incorporated into the cells is measured by counting the plate in a Tri-Lux counter (Wallac). The IC50 is defined as the concentration of product which reduces the radioactivity by 50% compared with an untreated control. A product with an IC50 of less than 10 μm is regarded as cytotoxic.

[1] = target: T1, Tubulin purified from pig brains (Sus scrofa, UniProt P02550+P02554); assay: Assessment of the inhibition of tubulin polymerization (turbidimetry at 350 nm); type: biochemical; settings: concentration which inhibits the rate of polymerization by 50%; tubulin 1 mg/ml, 37° C.; read-out: Inhibition of tubulin polymerization IC 50
T1 construct: Tubulin is purified from pig brains according to published methods; from tissue; host or cells: pig brain
T1 sequence (P02550 whole entry): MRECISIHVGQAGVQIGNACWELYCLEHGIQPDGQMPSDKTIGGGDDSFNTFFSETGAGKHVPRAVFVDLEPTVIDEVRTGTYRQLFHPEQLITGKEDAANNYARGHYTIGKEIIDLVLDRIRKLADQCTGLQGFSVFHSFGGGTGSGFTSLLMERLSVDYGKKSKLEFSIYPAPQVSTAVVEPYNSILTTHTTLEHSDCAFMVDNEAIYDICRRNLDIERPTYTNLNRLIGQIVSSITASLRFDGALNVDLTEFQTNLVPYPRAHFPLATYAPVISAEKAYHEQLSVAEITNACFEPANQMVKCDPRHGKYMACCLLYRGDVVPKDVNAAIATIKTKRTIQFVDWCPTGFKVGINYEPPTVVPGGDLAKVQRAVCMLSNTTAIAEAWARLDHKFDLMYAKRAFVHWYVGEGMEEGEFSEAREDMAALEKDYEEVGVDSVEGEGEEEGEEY
T1 sequence (P02554 whole entry): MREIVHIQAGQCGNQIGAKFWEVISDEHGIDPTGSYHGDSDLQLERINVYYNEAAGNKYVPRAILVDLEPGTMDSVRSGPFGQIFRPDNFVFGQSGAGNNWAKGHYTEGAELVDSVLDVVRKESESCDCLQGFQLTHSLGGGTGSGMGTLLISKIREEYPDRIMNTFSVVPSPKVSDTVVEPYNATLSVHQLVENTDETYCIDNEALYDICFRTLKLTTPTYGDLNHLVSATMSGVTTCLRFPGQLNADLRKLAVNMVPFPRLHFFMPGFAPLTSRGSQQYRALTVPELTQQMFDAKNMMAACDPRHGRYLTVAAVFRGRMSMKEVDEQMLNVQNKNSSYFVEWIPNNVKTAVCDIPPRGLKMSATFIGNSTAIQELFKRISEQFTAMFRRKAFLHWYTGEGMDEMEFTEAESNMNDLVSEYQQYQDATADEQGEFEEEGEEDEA
Method: Assessment of the Inhibition of Tubulin Polymerization
Tubulin is purified from pig brains according to published methods (Shelanski et al., 1973, Proc. Natl. Acad. Sci. USA, 70, 765-768. Weingarten et al., 1975, Proc. Natl. Acad. Sci. USA, 72, 1858-1862). Briefly, the brains are ground and centrifuged in an extraction buffer. The tubulin, present in the extract supernatant is subjected to two successive cycles of polymerization at 37° C. and depolymerization at 4° C., before being separated from the MAPs (Microtubule Associated Proteins) by chromatography on a phosphocellulose P11 column (Whatman). The tubulin thus isolated is more than 95% pure. It is stored in a buffer known as RB/2 30% glycerol, the composition of which is 50 mM MES-NaOH [2-(N-morpholino)ethanesulfonic acid], pH 6.8; 0.25 mM MgCl2; 0.5 mM EGTA; 30% (v/v) glycerol, 0.2 mM GTP (guanosine 5′-triphosphate).
The polymerization of the tubulin into microtubules is monitored by turbidimetry as follows: the tubulin is adjusted to a concentration of 10 μm (1 mg/ml) in the RB/2 30% glycerol buffer, to which are added 1 mM GTP and 6 mM MgCl2. The polymerization is initiated by increasing the temperature from 6° C. to 37° C. in a cuvette with a 1 cm optical pathlength, placed in a UVIKON 931 spectrophotometer (Kontron) equipped with a thermostatically-regulated cuvette holder. The increase in turbidity of the solution is monitored at 350 nm.
The products are dissolved at 10 mM in DMSO and added at variable concentrations (0.5 to 10 μm) to the tubulin solution before polymerization. The IC50 is defined as the concentration of the product which inhibits the rate of polymerization by 50%.

Row | IC50 (HCT116 cells) [nM] | IC50 [1] [nM] | Compound
1 | 8.5 | 2400 | COc1cc(OC)cc(N2CCN(C(=O)c3c[nH]cc3-c3ccccc3)CC2)c1 [Example 16, [4-(3,5-Dimethoxyphenyl)piperazin-1-yl](4-phenyl-1H-pyrrol-3-yl)methanone]
2 | 3.8 | 970 | COc1cc(OC)cc(N2CCN(C(=O)c3cn(C)cc3-c3ccccc3)CC2)c1 [Example 18, [4-(3,5-Dimethoxyphenyl)piperazin-1-yl](1-methyl-4-phenyl-1H-pyrrol-3-yl)methanone hydrochloride]
3 | 11.7 | 700 | COc1cc(OC)cc(N2CCN(C(=O)c3nc(S)[nH]c3-c3ccccc3)CC2)c1 [Example 20, [4-(3,5-Dimethoxyphenyl)piperazin-1-yl](2-mercapto-5-phenyl-1H-imidazol-4-yl)methanone]
4 | 1.7 | 600 | COc1cc(OC)cc(N2CCN(C(=O)c3nc(SC)[nH]c3-c3ccccc3)CC2)c1 [Example 23, [4-(3,5-Dimethoxyphenyl)piperazin-1-yl](2-methylsulfanyl-5-phenyl-1H-imidazol-4-yl)methanone]
5 | 114 | 9500 | COc1cc(OC)cc(N2CCN(C(=O)c3nc(SC)n(C)c3-c3ccccc3)CC2)c1 [Example 24, [4-(3,5-Dimethoxyphenyl)piperazin-1-yl](N-methyl-2-methylsulfanyl-5-phenyl-1H-imidazol-4-yl)methanone]
6 | 3 | 400 | COc1cccc(N2CCN(C(=O)c3[nH]cnc3-c3ccccc3)CC2)c1 [Example 29, [4-(3-Methoxyphenyl)piperazin-1-yl](4-phenyl-1H-imidazol-5-yl)methanone]
7 | 180 | 1950 | COc1cc(OC)cc(N2CCN(C(=O)c3[nH]c([S+](C)[O-])nc3-c3ccccc3)CC2)c1 (stereo not shown) [Example 33, [4-(3,5-Dimethoxyphenyl)piperazin-1-yl](2-methanesulfinyl-5-phenyl-1H-imidazol-4-yl)methanone]
8 | 2310 | 19900 | COc1cc(OC)c(O)c(N2CCN(C(=O)c3[nH]c([S+](C)[O-])nc3-c3ccccc3)CC2)c1 (stereo not shown) [Example 38, [4-(2-Hydroxy-3,5-dimethoxyphenyl)piperazin-1-yl](2-methanesulfinyl-5-phenyl-1H-imidazol-4-yl)methanone]
9 | 275 | 11200 | COc1cc(OC)cc(N2CCN(C(=O)c3c(-c4ccccc4)ccn3C)CC2)c1 [Example 40, [4-(3,5-Dimethoxyphenyl)piperazin-1-yl](1-methyl-3-phenyl-1H-pyrrol-2-yl)-methanone hydrochloride]
10 | 123 | 1330 | COc1cc(OC)cc(N2CCN(C(=O)c3cn(C(C)=O)cc3-c3ccccc3)CC2)c1 [Example 41, 1-{3-[4-(3,5-Dimethoxyphenyl)piperazin-1-yl-carbonyl]-4-phenylpyrrol-1-yl}-ethanone]
11 | 1.6 | 1290 | COc1cc(OC)cc(N2CCN(C(=O)c3sc(N)nc3-c3ccccc3)CC2)c1 [Example 42, (2-Amino-4-phenylthiazol-5-yl)[4-(3,5-dimethoxyphenyl)piperazin-1-yl]-methanone]
12 | 7.1 | 600 | COc1cc(OC)cc(N2CCN(C(=O)c3[nH]c(C)nc3-c3ccccc3)CC2)c1 [Example 43, [4-(3,5-Dimethoxyphenyl)piperazin-1-yl](2-methyl-5-phenyl-3H-imidazol-4-yl)methanone]
13 | 6380 | 4350 | COc1cc(OC)cc(N2CCN(C(=O)c3cn(CCCC(=O)O)cc3-c3ccccc3)CC2)c1 [Example 46, 4-{3-[4-(3,5-Dimethoxyphenyl)piperazin-1-yl]carbonyl-4-phenyl-1H-pyrrol-1-yl}-butanoic acid]
14 | 51.1 | 750 | COc1cc(OC)cc(N2CCN(C(=O)c3cn(Cc4cccnc4)cc3-c3ccccc3)CC2)c1 [Example 48, [4-(3,5-Dimethoxyphenyl)piperazin-1-yl][1-(pyridin-3-yl)methyl-4-phenyl-1H-pyrrol-3-yl]methanone]
15 | 64 | 1380 | CSc1nc(-c2ccccc2)c(C(=O)N2CCN(c3cccc(C(N)=O)c3)CC2)[nH]1 [Example 55, 3-[4-(2-Methylsulfanyl-4-phenyl-1H-imidazol-5-ylcarbonyl)piperazin-1-yl]-benzamide]

Further lines, the molecule ahead of its results:

Row | Compound | IC50 (HCT116 cells) [nM] | IC50 [1] [nM]
16 | O=C(c1c[nH]cc1-c1ccccc1)N1CCN(c2cccc(Cl)c2)CC1 [Example 15, [4-(3-Chlorophenyl)piperazin-1-yl](4-phenyl-1H-pyrrol-3-yl)methanone] | 731 | 2900
17 | NC(=O)c1cccc(N2CCN(C(=O)c3cncn3-c3ccccc3)CC2)c1 [Example 17, [4-(3-Carboxamidophenyl)piperazin-1-yl](1-phenyl-1H-imidazol-5-yl)methanone] | 536 | 5500
18 | NC(=O)c1cccc(N2CCN(C(=O)c3[nH]cnc3-c3ccccc3)CC2)c1 [Example 22, [4-(3-Carboxamidophenyl)piperazin-1-yl](4-phenyl-1H-imidazol-5-yl)-methanone] | 193 | 1100
19 | NC(=O)c1cccc(N2CCN(C(=O)c3cc[nH]c3-c3ccccc3)CC2)c1 [Example 25, [4-(3-Carboxamidophenyl)piperazin-1-yl](2-phenyl-1-H-pyrrol-3-yl)methanone] | 297 | 9600
20 | O=C(c1cc[nH]c1-c1ccccc1)N1CCN(c2cccc(Cl)c2)CC1 [Example 26, [4-(3-Chlorophenyl)piperazin-1-yl](2-phenyl-1H-pyrrol-3-yl)methanone] | 75.2 | 3200
21 | O=C(c1[nH]cnc1-c1ccccc1)N1CCN(c2cccc(OC(F)F)c2)CC1 [Example 30, [4-(3-Difluoromethoxyphenyl)piperazin-1-yl](5-phenyl-1H-imidazol-4-yl)methanone] | 6.4 | 800
22 | COC(=O)CCn1cc(C(=O)N2CCN(c3cccc(Cl)c3)CC2)c(-c2ccccc2)c1 [Example 34, Methyl 3-{3-[4-(3-chlorophenyl)piperazin-1-ylcarbonyl]-4-phenylpyrrol-1-yl}-propionate] | 749 | 2160
23 | Cn1cc(C(=O)N2CCN(c3cccc(C(N)=O)c3)CC2)c(-c2ccccc2)c1 [Example 37, 3-[4-(1-Methyl-4-phenyl-1H-pyrrol-3-yl-carbonyl)piperazin-1-yl]benzamide] | 14.9 | 720
24 | NC(=O)c1cccc(N2CCN(C(=O)c3[nH]ccc3-c3ccccc3)CC2)c1 [Example 39, 3-[4-(3-Phenyl-1H-pyrrol-2-ylcarbonyl)piperazin-1-yl]benzamide] | 200 | 12400
25 | Cn1ccc(C(=O)N2CCN(c3cccc(C(N)=O)c3)CC2)c1-c1ccccc1 [Example 50, 3-[4-(1-Methyl-2-phenyl-1H-pyrrol-3-ylcarbonyl)piperazin-1-yl]benzamide] | 536 | 3410
26 | NC(=O)c1cccc(N2CCN(C(=O)c3[nH]c(C(F)(F)F)nc3-c3ccccc3)CC2)c1 [Example 54, 3-[4-(2-Trifluoromethyl-4-phenyl-1H-imidazol-5-ylcarbonyl)piperazin-1-yl]-benzamide] | 1890 | 1080
27 | CSc1nc(-c2ccccc2)c(C(=O)N2CCN(c3cccc(C#N)c3)CC2)[nH]1 [Example 56, 3-[4-(2-Methylsulfanyl-4-phenyl-1H-imidazol-5-ylcarbonyl)piperazin-1-yl]-benzonitrile] | 1.7 | 415
28 | NC(=O)c1cccc(N2CCN(C(=O)c3c[nH]cc3-c3ccccc3)CC2)c1 [Example 58, 3-[4-(4-Phenyl-1H-pyrrol-3-ylcarbonyl)piperazin-1-yl]benzamide] | 334 | 4450
29 | Cc1nc(-c2ccccc2)c(C(=O)N2CCN(c3cccc(C(N)=O)c3)CC2)[nH]1 [Example 59, 3-[4-(2-Methyl-5-phenyl-1H-imidazol-4-ylcarbonyl)piperazin-1-yl]benzamide] | 364 | 4660
